Columns and labels:
Format in all cases: cell-based
CCDC6-RET-BaF3 = target: T1, CCDC6-RET-BaF3 (Homo sapiens, UniProt P07949); assay: Growth inhibition of CCDC6-RET-BaF3 cells stably transfected with kinase (MTS); settings: 48 h, read-out: CCDC6-RET (IC50/nM)
T1 construct: fused on or other part: Q16204 (Coiled-coil domain-containing protein 6)
Summary of the method: (§1)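 IC50 derived from growth inhibition by MTS absorbance at 490 nm after 48 h compound exposure (top 10 μM, 1:3 steps, 8 points, 0.1% DMSO) of 2×10^4 RET-fusion (CCDC6-RET, KIF5B-RET) or wild-type BaF3 cells per well, in triplicate.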

KIF5B-RET-BaF3 = target: T2, KIF5B-RET-BaF3 (Homo sapiens, UniProt P07949); assay: Growth inhibition of KIF5B-RET-BaF3 cells stably transfected with kinase (MTS); settings: 48 h, read-out: KIF5B-RET (IC50/nM)
T2 construct: fused on or other part: P33176 (Kinesin-1 heavy chain)
Summary of the method: as §1

LC-2/AD cells = assay: Growth inhibition of RET-positive non-small cell lung cancer cells LC-2/AD (MTS); settings: Homo sapiens, LC-2/AD non-small cell lung cancer cells, 48 h
Protocol: Growth inhibitory activity of compounds on kinase RET-positive non-small cell lung cancer cells LC-2/AD
The specific test method is given as follows:
1) Medium: DMEM (Dulbecco's modified eagle medium) or RPMI 1640 (containing 10% fetal bovine serum, 100 μg/mL ampicillin, 100 μg/mL streptomycin).
2) Reagents: MTS reaction solution (containing 2 mg/mL of MTS [3-(4,5-dimethylthiazol-2-yl)-5-(3-carboxymethoxyphenyl)-2-(4-sulfophenyl)-2H-tetrazolium, inner Salt]; 100 μg/mL PES (phenazine […])).
3) Compound test: LC-2/AD cells (2×10^4 cells/well) were incubated into a 96-well culture plate, the volume of cell culture fluid was 90 μL, and then 10 μL of the compound at each gradient concentration was added (the highest concentration was 10 μM, which was diluted stepwise by ⅓, and 8 concentration points were set in total; the system contained 0.1% DMSO (dimethyl sulfoxide)). The cell plate with uniformly mixed compound was cultured in a cell culture incubator (37° C.; 5% CO2) for 48 h, then 20 μL of MTS reaction solution was added, uniformly mixed and incubated in the cell culture incubator (37° C.; 5% CO2) for 1-4 hr; OD values at 490 nm were measured by a microplate reader (VARIOSKAN FLASH, Thermo). Three parallels were set in each group of experiments, with 0.1% (a final concentration) DMSO as a negative control, and a medium without cells or compounds as a blank control. The cell growth inhibition rate was calculated by the following formula: Cell growth inhibition rate %=1−(ODexperimental group−ODblank group)/(ODnegative group−ODblank group)×100%
4) IC50 calculation: The semi-inhibitory concentration of the compound acting on cell growth was calculated using GradPad Prism 5 software according to the measured cell growth inhibition rate.

wild-type BaF3 = assay: Growth inhibition of wild-type BaF3 cells, broad-spectrum toxicity (MTS); settings: Mus musculus, 48 h, read-out: WT Ba/F3 (IC50/nM)
Summary of the method: as §1

T2 sequence (P07949 whole entry, change not shown, the tested form may be a part): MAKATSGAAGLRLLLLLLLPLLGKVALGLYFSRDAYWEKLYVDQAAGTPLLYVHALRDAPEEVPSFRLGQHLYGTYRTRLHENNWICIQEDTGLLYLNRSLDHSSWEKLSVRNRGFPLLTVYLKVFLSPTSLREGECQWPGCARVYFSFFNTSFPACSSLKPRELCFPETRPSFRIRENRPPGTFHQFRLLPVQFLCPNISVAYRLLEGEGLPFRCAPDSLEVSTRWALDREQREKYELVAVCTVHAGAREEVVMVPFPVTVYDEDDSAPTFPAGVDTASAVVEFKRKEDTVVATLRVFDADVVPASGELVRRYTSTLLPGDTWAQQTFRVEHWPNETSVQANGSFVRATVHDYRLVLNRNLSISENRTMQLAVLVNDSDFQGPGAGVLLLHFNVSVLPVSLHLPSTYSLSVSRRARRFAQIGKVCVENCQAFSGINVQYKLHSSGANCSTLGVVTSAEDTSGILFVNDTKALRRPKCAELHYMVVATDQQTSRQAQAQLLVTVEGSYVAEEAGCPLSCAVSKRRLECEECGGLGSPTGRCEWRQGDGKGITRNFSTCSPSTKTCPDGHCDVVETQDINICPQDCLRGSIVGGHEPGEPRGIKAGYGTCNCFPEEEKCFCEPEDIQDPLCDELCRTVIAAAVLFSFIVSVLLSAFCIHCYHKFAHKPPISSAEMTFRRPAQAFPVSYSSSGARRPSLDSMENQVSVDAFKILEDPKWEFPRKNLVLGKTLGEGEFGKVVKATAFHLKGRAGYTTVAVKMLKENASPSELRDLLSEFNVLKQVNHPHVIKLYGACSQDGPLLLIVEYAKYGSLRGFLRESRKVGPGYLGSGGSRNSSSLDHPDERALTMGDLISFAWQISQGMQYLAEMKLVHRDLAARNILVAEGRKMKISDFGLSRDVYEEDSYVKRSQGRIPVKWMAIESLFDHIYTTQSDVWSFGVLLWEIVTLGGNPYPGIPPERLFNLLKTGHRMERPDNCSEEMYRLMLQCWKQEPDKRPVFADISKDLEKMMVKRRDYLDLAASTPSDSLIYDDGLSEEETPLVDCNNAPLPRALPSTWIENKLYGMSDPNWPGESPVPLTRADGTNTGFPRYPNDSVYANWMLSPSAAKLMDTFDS
T1 sequence (P07949 whole entry, change not shown, the tested form may be a part): as above

Row | GI50 (CCDC6-RET-BaF3) | GI50 (KIF5B-RET-BaF3) | IC50 (LC-2/AD cells) | Compound | IC50 (wild-type BaF3)
1 | 226 nM | 302 nM | 4150 nM | COc1cc2nccc(Oc3ccc(NC(=O)C4(C(=O)Nc5ccc(F)cc5)CC4)cc3)c2cc1OC [Cabozantinib] | 
2 | 8.38 nM | 40.5 nM | 818 nM | Cc1ccc(Oc2nc(-c3ccncc3)nc3c2ncn3C)cc1C(=O)Nc1ccc(CN2CCN(C)CC2)c(C(F)(F)F)c1 [I-n-3] | 
3 | 35.2 nM | 8.28 nM | 301 nM | Cc1ccc(C(=O)Nc2ccc(CN3CCN(C)CC3)c(C(F)(F)F)c2)cc1Oc1nc(-c2cccnc2)nc2c1cnn2C [II-m-1] | 
4 | 172 nM | 173 nM | 1400 nM | Cc1ccc(Oc2nc(-c3ccncc3)nc3nn(C)cc23)cc1C(=O)Nc1ccc(CN2CCN(C)CC2)c(C(F)(F)F)c1 [IV-n-2] | 
5 | 580 nM | 616 nM |  | Cc1ccc(Oc2cc(-c3ccncc3)nc3[nH]ccc23)cc1C(=O)Nc1ccc(CN2CCN(C)CC2)c(C(F)(F)F)c1 [V-n-2] | 2070 nM
6 | 561 nM | 493 nM |  | CN1CCN(Cc2ccc(C(=O)Nc3cccc(Oc4nc(-c5ccncc5)nc5ccsc45)c3)cc2C(F)(F)F)CC1 [VI-h-2] | 3900 nM
7 | 1950 nM | 1470 nM |  | Cc1ccc(NC(=O)c2ccc(CN3CCN(C)CC3)c(C(F)(F)F)c2)cc1Oc1nc(-c2cccnc2)nc2ccsc12 [VI-i-1] | 1530 nM
8 | 2700 nM | 3960 nM |  | Cc1ccc(Oc2nc(-c3cccnc3)nc3ccsc23)cc1NC(=O)c1ccc(CN2CCN(C)CC2)c(C(F)(F)F)c1 [VI-j-1] | 3380 nM
9 | 3.08 nM | 17 nM |  | Cc1ccc(Oc2nc(-c3ccncc3)nc3ccsc23)cc1NC(=O)c1ccc(CN2CCN(C)CC2)c(C(F)(F)F)c1 [VI-j-2] | 3940 nM
10 | 2640 nM | 3220 nM |  | CN1CCN(Cc2ccc(NC(=O)c3cccc(Oc4nc(-c5cccnc5)nc5ccsc45)c3)cc2C(F)(F)F)CC1 [VI-l-1] | 4620 nM
11 | 3240 nM | 2840 nM |  | Cc1ccc(Oc2nc(-c3cccnc3)nc3ccsc23)cc1C(=O)Nc1ccc(CN2CCN(C)CC2)c(C(F)(F)F)c1 [VI-n-1] | 4190 nM
12 | 2170 nM | 2870 nM |  | CN1CCN(Cc2ccc(NC(=O)c3cc(Oc4nc(-c5cccnc5)nc5ccsc45)ccc3Cl)cc2C(F)(F)F)CC1 [VI-o-1] | 3990 nM
13 | 3570 nM | 3430 nM |  | Cc1ccc(C(=O)Nc2cc(CN3CCN(C)CC3)cc(C(F)(F)F)c2)cc1Oc1nc(-c2cccnc2)nc2ccsc12 [VI-q-1] | 4360 nM
14 | 1520 nM | 1470 nM |  | Cc1ccc(C(=O)Nc2cc(CN3CCN(C)CC3)cc(C(F)(F)F)c2)cc1Oc1nc(-c2ccncc2)nc2ccsc12 [VI-q-2] | 1520 nM

From patent US11319322B2, “Substituted aryl ether compound, preparation method thereof, pharmaceutical composition and use thereof” (Xiamen University, priority 2017, dated 2022)
